Test results: US20220117958A1, “COMPOSITIONS AND METHODS FOR INHIBITING ACSS2” (THE TRUSTEES OF THE UNIVERSITY OF PENNSYLVANIA, priority 2018, published 2022)

How the values were obtained:
Type in all cases: in vitro ADME
[1] = Microsomal stability assay (half-life), mouse; conditions: Mouse (CD1) microsomes, read-out: Microsomal stability T1/2
Source text: (§1) Table 20 provides results of in vitro and in vivo pharmacokinetics performed for each of the represented compounds.

[2] = Microsomal stability assay (half-life), human; conditions: Human microsomes, read-out: Microsomal stability T1/2
Source text: as §1

[3] = Microsomal stability assay (half-life), rat; conditions: Rat (SD) microsomes, read-out: Microsomal stability T1/2
Source text: as §1

[4] = Protein binding via Rapid Equilibrium Dialysis - plasma; conditions: Rat (SD) plasma, 2 μM
Source text: as §1

| half-life at 2 μM [1] | half-life at 2 μM [2] | half-life at 2 μM [3] | Protein binding, plasma: % Protein free [4] | Structure (SMILES) |
| --- | --- | --- | --- | --- |
| < 15 min | 7.97 min | 6.13 min | – | CCOc1ccc2ccc(=O)oc2c1 [7-Ethoxycoumarin, reference compound] |
| – | – | – | 0.5177 % Protein free | CC(=O)CC(c1ccccc1)c1c(O)c2ccccc2oc1=O (stereo not shown) [Warfarin, reference compound] |
